Test systems include A498 renal; HCT-15 colon; IGROV1 ovarian; NCI-H23 lung; RPMI-8226 leukemia; SF-295 CNS; SNB-75 CNS; U251 CNS; SR leukemia; T-47D breast.
Assay in all cases: growth of human tumour cells (NCI), 48 h

Values joined by “and” are separate entries in the source; they are usually repeats but may differ in a detail not shown here. Equal values may be shown once.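 Five concentrations, 48 hours, 96-well plates. GI50: concentration for 50% inhibition of growth. TGI is the concentration that stops growth completely.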

Regarding `O=C(O)COc1ccc(C(=O)/C(SS/C(C(=O)c2ccc(OCC(=O)O)c(Cl)c2Cl)=C2\C=C(c3ccc(Cl)cc3)SS2)=C2/C=C(c3ccc(Cl)cc3)SS2)c(Cl)c1Cl`, the TGI with A498 renal is over 100 µM; in the assay with HCT-15 colon, 18.1 µM; in the assay on IGROV1 ovarian it was 76.2 µM; with NCI-H23 lung, 40.8 µM; in the assay with RPMI-8226 leukemia, 43.3 µM; with SF-295 CNS, 82.5 µM. Moreover, the TGI is 31 µM with SNB-75 CNS and 15.4 µM in the assay with U251 CNS.

Turning to `CCCCNC(=O)C1C(=O)N(CCCC)C(=O)/C1=N\N` (stereo not drawn), the TGI in the assay with A498 renal, in the assay with HCT-15 colon, in the assay on IGROV1 ovarian, in the assay with NCI-H23 lung, in the assay on RPMI-8226 leukemia and in the assay on SF-295 CNS was over 100 µM in each case. Also, the TGI in the assay on SNB-75 CNS and in the assay on U251 CNS was over 100 µM in each case.

As to `N#CCCCCCOCCOCCOCCOCCOCCCCCC#N`, the TGI in the assay with A498 renal, in the assay on HCT-15 colon, with IGROV1 ovarian, in the assay on NCI-H23 lung, in the assay on SF-295 CNS and in the assay with SNB-75 CNS was over 100 µM each time. For the same compound, the TGI with SR leukemia and with U251 CNS was over 100 µM each time.

For the compound `Cc1nn2c(nc1=O)sc1ccc3ccccc3c12`, the TGI with HCT-15 colon, in the assay on IGROV1 ovarian, in the assay on NCI-H23 lung, in the assay on SF-295 CNS, with SNB-75 CNS and in the assay on SR leukemia was over 100 µM in each case. The TGI in the assay on U251 CNS is over 100 µM.

In the case of `CCOC(=O)C(N=C(c1ccccc1)c1ccccc1)N(C(=O)OC(C)(C)C)C(=O)OC(C)(C)C` (stereo not drawn), the TGI in the assay on HCT-15 colon, in the assay with IGROV1 ovarian, in the assay on NCI-H23 lung, in the assay on RPMI-8226 leukemia, in the assay on SF-295 CNS and with SNB-75 CNS was over 100 µM each time. Moreover, the TGI in the assay with SR leukemia and in the assay with U251 CNS was over 100 µM throughout.

With `COc1cc2c(cc1OC)CC(=O)Nc1cc(OC)c(OC)cc1CC2`, the TGI with A498 renal is over 100 µM; in the assay with HCT-15 colon it was over 100 µM; in the assay on IGROV1 ovarian, over 100 µM; in the assay on NCI-H23 lung, over 100 µM; with RPMI-8226 leukemia, over 20 µM; with SF-295 CNS, over 100 µM. The TGI in the assay on SNB-75 CNS was over 100 µM; in the assay on SR leukemia it was over 43.7 µM; in the assay on U251 CNS, over 100 µM.

On to `CC[C@@]1(O)C(=O)OCc2c1cc1n(c2=O)Cc2cc3cccc([N+](=O)[O-])c3nc2-1`, for which the GI50 with A498 renal was 1430 nM; in the assay on IGROV1 ovarian, 1960 nM; in the assay on NCI-H23 lung, 486 nM; with RPMI-8226 leukemia it was 1710 nM; with SF-295 CNS it was 346 nM; with SNB-75 CNS it was 879 nM. In the assay with U251 CNS, the GI50 was 312 nM. For the same compound, the TGI in the assay on A498 renal came out at 5.03 µM; in the assay on IGROV1 ovarian, 14.9 µM; in the assay on NCI-H23 lung it was 4.19 µM; in the assay with RPMI-8226 leukemia, 64.5 µM; in the assay with SF-295 CNS it was 16 µM; in the assay on SNB-75 CNS it was 7.85 µM. Moreover, the TGI in the assay with U251 CNS amounted to 3.07 µM.

In the case of `CC(N)(/C=C/c1ccccc1)C(=O)O` (stereo not drawn), the TGI with A498 renal, with HCT-15 colon, in the assay on IGROV1 ovarian, in the assay on NCI-H23 lung, in the assay on RPMI-8226 leukemia and with SF-295 CNS was over 100 µM each time. The TGI in the assay with SR leukemia and in the assay on U251 CNS was over 100 µM in each case.

Regarding `COc1ccc2c(c1)[nH]c(=O)c1c3ccccc3cn21`, the GI50 in the assay on A498 renal was 22.3 nM and < 37.5 nM; in the assay on HCT-15 colon it was 26.2 nM and < 17.7 nM; in the assay with IGROV1 ovarian, 73.4 nM and < 11.4 nM; with RPMI-8226 leukemia it was 36.6 nM; with SF-295 CNS, 26.8 nM; in the assay on U251 CNS it was 43.6 nM. Besides, the TGI was 2.27 µM and 16 µM in the assay on IGROV1 ovarian; 3.39 µM and 14.6 µM in the assay with NCI-H23 lung; 1.4 µM and 0.4 µM with RPMI-8226 leukemia; 1.05 µM in the assay on SF-295 CNS; 2.04 µM in the assay with SR leukemia; 1.52 µM and 4.44 µM in the assay on U251 CNS.

On to `Nc1nc(N)c(-c2ccccc2)c(C(=O)Nc2ccccc2)n1`, for which the TGI with A498 renal, in the assay on HCT-15 colon, in the assay on IGROV1 ovarian, with NCI-H23 lung, in the assay on RPMI-8226 leukemia and in the assay on SNB-75 CNS was over 100 µM in each case. The TGI in the assay on U251 CNS was over 100 µM.

With `COc1ccc(NC(=O)CC/C(CC(=O)c2ccco2)=N/NC(N)=S)cc1`, the TGI in the assay on A498 renal, in the assay with HCT-15 colon, in the assay on IGROV1 ovarian, with NCI-H23 lung, in the assay on RPMI-8226 leukemia and in the assay with SF-295 CNS was over 100 µM in each case. Also, in the assay with U251 CNS, the TGI was over 100 µM.

Regarding `O=c1c2ccccc2nc(/C=C(\O)c2ccncc2)n1-c1ccc(Cl)cc1`, the TGI in the assay with A498 renal is over 100 µM; in the assay on HCT-15 colon, over 100 µM; in the assay on NCI-H23 lung it was over 100 µM; with RPMI-8226 leukemia, over 100 µM; in the assay on SF-295 CNS it was over 100 µM; in the assay with SNB-75 CNS, 61.7 µM. Also, the TGI in the assay on SR leukemia and with U251 CNS was over 100 µM throughout.

In the case of `COc1ccc2c(c1)oc(=O)c1cc(OC)ccc12`, the GI50 is 1560 nM in the assay with A498 renal; over 100000 nM with HCT-15 colon; over 100000 nM in the assay on IGROV1 ovarian; over 100000 nM in the assay on NCI-H23 lung; over 100000 nM in the assay on RPMI-8226 leukemia; over 100000 nM in the assay with SF-295 CNS. Also, the figures for the GI50 with SNB-75 CNS, in the assay with T-47D breast and in the assay with U251 CNS were over 100000 nM, over 100 µM and over 100000 nM, respectively. The TGI is 99 µM in the assay on A498 renal; over 100 µM in the assay on HCT-15 colon; over 100 µM with IGROV1 ovarian; over 100 µM in the assay on NCI-H23 lung; over 100 µM with RPMI-8226 leukemia; over 100 µM with SF-295 CNS. Moreover, the TGI in the assay on SNB-75 CNS, with T-47D breast and with U251 CNS was over 100 µM in each case.

As to `CCN1C(=O)N(CC)C2C1NN=c1s/c(=C\c3ccco3)c(=O)n12` (stereo not drawn), the GI50 in the assay on A498 renal was 390 nM; in the assay with HCT-15 colon, 481 nM; with IGROV1 ovarian it was 1160 nM; in the assay on NCI-H23 lung it was 1100 nM; in the assay on RPMI-8226 leukemia it was 438 nM; in the assay with SF-295 CNS it was 470 nM. Further, the GI50 in the assay on SNB-75 CNS is 239 nM; with SR leukemia, 196 nM; in the assay on U251 CNS it was 576 nM. The TGI with HCT-15 colon was over 100 µM; with IGROV1 ovarian it was over 100 µM; in the assay on NCI-H23 lung, over 100 µM; in the assay with RPMI-8226 leukemia, over 100 µM; in the assay with SF-295 CNS, over 44.6 µM; in the assay on SR leukemia, over 100 µM. In addition, the TGI with U251 CNS is over 100 µM.
